Reference: patent US20060252040A1, “Strand specific detection and quantification” (priority 2002, published 2006)

Experiments:
Dengue 2 virus [1] = test: RT and real-time quantitative PCR of Dengue RNA in infected BHK-21 cells treated with ribavirin; type: cell-based; details: m.o.i 0.00125, day 3 post-infection
Protocol: RT-PCR and real-time quantitative PCR of Dengue nucleic acids: Total RNA was prepared from infected cells using the TRizol® Reagent (Invitrogen Life Technologies, Carlsbad, Calif.) according to manufacturer's instructions. The RNA obtained was quantified by spectrophotometry, and their integrity analyzed by gel electrophoresis. The RT reaction was performed at 42° C. on 2-5 ug of total RNA as described (21) using 100 U of M-MLV (Promega Corporation, Madison, Wis.) with either 12.5 pmoles of random hexamers (Promega Corporation, Madison, Wis.) or DNS-1 (5′-[…]-3′ (SEQ ID NO: 5)) in a total volume of 10 ul. […] The calculated ΔG of the hairpin loop at the RT step was −2.9 kcal/mol, with a Tm (melting temperature) of 62° C. […] However, with the conditions used for PCR, the ΔG and the Tm of the hairpin loop were −0.4 kcal/mol and 64° C. respectively.
All real-time quantitative PCR was performed on the iCycler jQ™ Multi-Color Real Time PCR Detection System (Bio-Rad, Hercules, Calif.). The threshold cycles (Ct) were calculated using the Optical interface v2.3B (Bio-Rad, Hercules, Calif.). […] Unless stated otherwise, all real-time quantitative PCR was performed with 40 cycles of 30 s denaturation at 95° C., 30 s annealing at 60° C. and 30 s extension at 72° C. […]

BHK-21 cells = test: Cytotoxicity by LDH release (CytoTox 96 Non-Radioactive Cytotoxicity Assay); type: cell-based, hamster; details: highest concentration used, 10 ug/ml, day 3 post-infection
Protocol: (§1) Dengue virus infection and titration: Monolayers of C6/36 or BHK-21 cells were grown in 24 well plates and infected the next day with Dengue 2 virus. After adsorption for 1 hour, unbound viruses were removed by aspiration, the cells rinsed with PBS and grown in their respective maintenance media. Cells without Dengue virus infection, or inoculated with heat-inactivated virus (30 minutes at 56° C.), were used as controls. In some experiments, BHK-21 cells were infected with Dengue 2 virus and grown in the absence or presence of varying concentrations of ribavirin (1-fl-D-ribofuranosyl-1,2,4-triazole-3-carboximide; Sigma, St. Louis, Mo.) to inhibit viral transcription. Cytotoxicity of the cells due to ribavirin treatment was determined by CytoTox 96® Non-Radioactive Cytotoxicity Assay (Promega Corporation, Madison, Wis.). The titer of Dengue 2 virus was determined by plaque assay with BHK-21 cells. […] At day 6 post-infection, cells were fixed and stained with 1% crystal violet-4% formalin solution in phosphate-buffered saline (PBS), and the plaque numbers counted. […]
(§2) To correlate the levels of replicating virus and the effects of ribavirin, BHK-21 cells were initially infected with Dengue virus at an m.o.i of 0.00125, in the absence or in the presence of varying concentrations of ribavirin. […] The results further validated the utility of this method to quantify the replicative form of the virus.

[2] = system: RNA viruses including Dengue; details: Koff et al., 1982; Sidwell, 1979; cited from earlier work
Dengue 2 virus [3] = test: Plaque assay of supernatants from Dengue-infected BHK-21 cells grown with ribavirin; type: cell-based; details: m.o.i 0.00125, supernatants harvested day 3 post-infection, varying concentrations of ribavirin
Protocol: as §1, §2

Structure (SMILES): NC(=O)c1ncn([C@@H]2O[C@H](CO)[C@@H](O)[C@H]2O)n1 [Ribavirin, 1-fl-D-ribofuranosyl-1,2,4-triazole-3-carboximide]
- replicative, negative Dengue RNA strand (Dengue 2 virus [1]; RT with DNS-1, increasing concentrations of ribavirin): concomitant decrease with increasing concentrations of ribavirin
- viral transcripts, random hexamer-primed RT, primers to the envelope region (Dengue 2 virus [1]; varying concentrations of ribavirin): corresponding decrease in viral transcripts
- cell death (LDH release) (BHK-21 cells): did not induce detectable cell death
- replication of RNA viruses [2]: known to inhibit the replication of many RNA viruses including Dengue
- viral replication (relative PFU) (Dengue 2 virus [3]): inhibited viral replication in a concentration dependent manner
